Results: US6562785B1, “Method for overcoming bacterial antibiotic resistance” (priority 1999, dated 2003)
Converted amounts (≈) assume the structure as drawn.

Tests used:
[1] = system: Staphylococcus aureus (ATCC 29213) and Micrococcus luteus; experiment: MIC: minimum antibiotic concentration causing no growth after 24 hours in Mueller-Hinton broth; type: cell-based; conditions: ATCC29213
Description: Staphylococcus aureus (ATCC 29213) and Micrococcus luteus were grown overnight in trypticase soy broth. Stock solutions of antibiotics were made according to […] & Washington (1991)(Balows, A. et al, (eds) American Society for Microbiology, Washington, 1991, pp. 1199-200). Antibiotics were diluted to the appropriate concentration in 1 ml of Mueller-Hinton broth (Gibco, Gaithersburg, Md.), and filtered though a 0.22 μm filter (Gelman Sciences, Ann Arbor, Mich.). MIC was defined as the minimum concentration of antibiotic that caused no growth after 24 hours in Mueller-Hinton broth.

[2] = system: Staphylococcus aureus (ATCC 29213) and Micrococcus luteus; experiment: Membrane permeability by TO-PRO-3 staining, flow cytometry; type: cell-based; conditions: for bacteria stained by TO-PRO-3: 4 hours exposure to 4 μg/ml
Description: (§1) Flow cytometric studies were performed using a laboratory-built dual laser instrument optimized for bacterial analysis. DiOC2(3) was excited at 488 nm by a beam from an argon ion laser; its green fluorescence was detected through a 530 nm, 20 nm bandwidth bandpass filter, and its red fluorescence was detected through a 610 nm, 19 nm bandpass filter. TO-PRO-3™ was excited at 633 nm by a beam from a helium-neon laser, and its fluorescence was detected through a 695 nm long pass filter. Light scattered at small angles to the 488 nm beam (forward scatter) was used as the trigger signal. Sheath flow rate was 10 ml/min; sample analysis rate was kept below 1,000 events/second. The signal pulse amplitudes were captured by high-precision peak detectors, and digitized using an Analogic HSDAS-16 16-bit data acquisition system in a Pentium-class personal computer. Software was used to perform logarithmic conversion on all of the parameters, which were represented on a 256-channel, 4-decade logarithmic scale.
(§2) Staphylococcus aureus (ATCC 29213) and Micrococcus luteus were grown overnight in trypticase soy broth. Stock solutions of antibiotics were made according to Anhalt & Washington (1991)(Balows, A. et al, (eds) American Society for Microbiology, Washington, 1991, pp. 1199-200). Antibiotics were diluted to the appropriate concentration in 1 ml of Mueller-Hinton broth (Gibco, Gaithersburg, Md.), and filtered though a 0.22 μm filter (Gelman Sciences, Ann Arbor, Mich.). MIC was defined as the minimum concentration of antibiotic that caused no growth after 24 hours in Mueller-Hinton broth.
(§3) Bacteria were added to an antibiotic solution at a concentration of 5.5×10^5/ml and incubated for the appropriate amount of time at 37 degrees C. while shaking. At each time point, a […] aliquot was removed and 30 μM DiOC2(3) and 100 nM TO-PRO-3™ were added simultaneously. The bacteria were allowed to incubate with the dye for 4 minutes prior to flow cytometric analysis. A second […] aliquot was treated identically, except that CCCP (final concentration 15 μM) was added to electrically depolarize the bacteria (i.e., to reduce membrane potential to zero).
(§4) Membrane potential was determined as a ratio of red to green DiOC2(3) fluorescence, providing a cell size-independent measure of MP. To measure membrane permeability, 100 nM TO-PRO-3™ was used in conjunction with the MP dye, DiOC2(3). […] Cells killed by heat exposure (100 degrees C. for 10 minutes) were used as positive controls for TO-PRO-3™ staining.
Effects of amoxicillin (MIC 2 μg/ml) were strongly concentration-dependent. […] Changes in permeability could be observed 45 minutes after antibiotic addition; however, the variance of the TO-PRO-3™ fluorescence distribution was quite large, due primarily to the large variance in size resulting from drug administration. The raw TO-PRO-3™ fluorescence data was corrected for size variation by calculating a quantity proportional to the logarithm of the ratio of TO-PRO-3™ fluorescence to green DiOC2(3) fluorescence, which is known to be proportional to size; the logarithm of green fluorescence was subtracted from the logarithm of TO-PRO-3™ fluorescence, and a constant was added to keep the values on scale. This allowed cells which had become permeable to TO-PRO-3™ to be visualized as a discrete population. Thus, when the size of the bacteria is altered by the permeabilizing agent, such as β-lactam antibiotics used at concentrations below MIC, correction for change in cell volume is important in making permeability measurements. […] Resumption of bacterial growth was coincident with this reversion to a TO-PRO-3™-impermeable state, which occurred after 3 hours in the presence of 0.25 μg/ml amoxicillin and after 4 hours in the presence of 0.5 μg/ml.

[3] = system: Staphylococcus aureus (ATCC 29213) and Micrococcus luteus; experiment: Membrane potential by ratio of red to green DiOC2(3) fluorescence, flow cytometry; type: cell-based
Description: as §1, §2, §3, §4

[4] = system: Staphylococcus aureus (ATCC 29213) and Micrococcus luteus; experiment: Bacterial growth and size (bead-referenced counts, forward scatter, microscopy); type: cell-based
Description: as §2
Bacteria were added to an antibiotic solution at a concentration of 5.5×10^5/ml and incubated for the appropriate amount of time at 37 degrees C. while shaking. […]
Bacteria were counted by adding […] sky blue beads (Spherotech, Libertyville, Ill.) to the cell suspension at a known concentration, determined by counting on a haemocytometer. […] Beads were diluted 1:100 into the bacterial sample and could be identified and counted based on their intense fluorescence (excitation at 633 nm; emission above 695 nm). The volume of sample analyzed in any given aliquot was calculated from the number of beads measured; dividing the number of bacteria by this volume yielded the concentration of bacteria in the aliquot.

[5] = even at high concentrations; cited from earlier work
[6] = system: gram negative organisms; conditions: concentrations up to 10 times MIC; cited from earlier work

With CC[C@H]1OC(=O)[C@H](C)[C@@H](O[C@H]2C[C@@](C)(OC)[C@@H](O)[C@H](C)O2)[C@H](C)[C@@H](O[C@@H]2O[C@H](C)C[C@H](N(C)C)[C@H]2O)[C@](C)(O)C[C@@H](C)C(=O)[C@H](C)[C@@H](O)[C@]1(C)O [erythromycin] as the compound, how does the MIC [1] read?
The MIC was 4 mg/L (≈ 5.45 µM).

And the “bacteria stained by TO-PRO-3” value [2]?
Its value is 20%.

And the permeability changes ([2]; concentrations below 1 μg/ml)?
Its permeability changes is “did not cause any permeability changes”.

What about the “MP reduced to” value ([3]; 4 μg/ml, after 4 hours) of the same compound?
Its value is −50 mV.

And the depolarization ([3]; dependence on concentration and time)?
Its depolarization is “concentration- and time-dependent depolarizations”.

Which results are given for O=C(N[C@H](CO)[C@H](O)c1ccc([N+](=O)[O-])cc1)C(Cl)Cl [chloramphenicol]?
bacterial growth ([4]; 4 μg/ml): completely prevented bacterial growth; changes in permeability ([2]; 4 μg/ml, after 4 hours): no changes; changes in permeability (Mortimer et al.) [5]: does not cause changes in permeability; changes in MP ([3]; 4 μg/ml, after 4 hours): no changes

With gentamicin as the compound, how does the “changes in permeability to nucleic acid stains” value [6] read?
Its value is “no”.

With CN(C)[C@@H]1C(O)=C(C(N)=O)C(=O)[C@@]2(O)C(O)=C3C(=O)c4c(O)cccc4[C@@](C)(O)[C@H]3C[C@@H]12 [Tetracycline, tetracycline] as the compound, how does the MIC [1] read?
Its MIC is 0.25 mg/L (≈ 0.563 µM).

And the “bacteria stained by TO-PRO-3” value [2]?
Its value is 50%.

And the “MP reduced to” value ([3]; 4 μg/ml, after 4 hours)?
Its value is −50 mV.

Which permeability changes ([2]; 5 μg/ml, 1 hour to 4 hours) does the source give for [H]/N=C(/N)N[C@H]1[C@H](O)[C@@H](O)[C@H](O[C@@H]2O[C@@H](C)[C@](O)(C=O)[C@H]2O[C@@H]2O[C@@H](CO)[C@H](O)[C@@H](O)[C@@H]2NC)[C@@H](N/C(N)=N\[H])[C@@H]1O [Streptomycin, streptomycin] here?
The permeability changes was “No permeability changes were seen”.

What about the “effect on MP” value ([3]; 5 μg/ml, by 1 hour, remained reduced at 105 minutes and 4 hours) of the same compound?
The value was “reduced MP”.

What about the “effect on MP after erythromycin preincubation” value ([3]; organisms preincubated with 1 mg/ml erythromycin for 30 minutes) of the same compound?
Its value is “abolished”.

Which results are given for CC1(C)S[C@@H]2[C@H](NC(=O)[C@H](N)c3ccc(O)cc3)C(=O)N2[C@H]1C(=O)O [amoxicillin]?
bacterial size ([4]; concentrations below MIC, microscopy and forward scatter): drastically increased in size; MIC [1]: 2 mg/L (≈ 5.47 µM); time to reversion to TO-PRO-3-impermeable state, coincident with resumption of bacterial growth ([2]; 0.25 μg/ml): 3 h; time to reversion to TO-PRO-3-impermeable state, coincident with resumption of bacterial growth ([2]; 0.5 μg/ml): 4 h; percentage of cells permeable to TO-PRO-3, 4 μg/ml compared with 1 μg/ml ([2]; 4 μg/ml versus 1 μg/ml): lower percentages of cells permeable to TO-PRO-3™; membrane integrity after four hours ([2]; 0.25 or 0.5 μg/ml, after four hours): the majority of the cells regained their membrane integrity; TO-PRO-3 permeable population and its MP ([2]; after 2 hours at either 0.25 or 0.5 μg/ml): a population that was permeable to TO-PRO-3™, but that maintained a normal MP, was detected; time after antibiotic addition at which changes in permeability could be observed ([2]; concentrations below MIC): 45 min; dominant characteristic of treated cells (MP) ([3]; concentrations above MIC): loss of MP
